Data on one substance can be found in US20130345392A1, “EDN3-LIKE PEPTIDES AND USES THEREOF” (Pfizer Inc, priority 2011, published 2013).

One assay has as its system C57BL6J male mice. The experiment in a line: Indirect calorimetry and telemetry in mice after injection into the preoptic area. It is filed as in vivo, mouse. The settings on record: 2.5 nmol by direct injection into the POA. As for the experimental part:
C57BL6J male mice (3-4 months old, 25-30 g, 6 mice per group) were purchased from Harlan. […] Energy expenditure measures (VO2, VCO2 and heat formation ((3.815+1.232*RER)*VO2 (in liters)) were corrected for estimated effective metabolic mass per Kleiber's power function (Kleiber, 1947). Mice undergoing indirect calorimetry were acclimated to the respiratory chambers for 3-4 days before the onset of study. Data were recorded under ambient room temperature clamped at 25° C., beginning from the onset of the light cycle (12:12 hour light-dark cycle; lights on at 6:00 a.m.) for 3 days. Treatments were administered directly to the POA via an implanted cannula (anterior from bregma: 0.3 mm, midline, ventral: 3.8 mm, cannula 26 GA, 10 mm length) using an injector (33 GA, protruding 0.4 mm beyond the tip of the cannula, total length 10.4 mm) connected to plastic tubing and a microsyringe (10 μL) in a volume of 0.5 μL over a period of 5 minutes to allow diffusion. […]

The next assay relates to DIO mice. The experiment in a line: Glucose tolerance (IPGTT) in DIO mice. Type of assay: in vivo, mouse. The settings on record: for decrease of glucose excursion: 2 g/kg glucose challenge i.p., mean±SEM n=8. As for the experimental part: DIO mice fed on a high fat diet for 14 weeks and ob/ob mice were purchased from Jackson Labs. Ob/Ob mice and DIO mice used in all studies were used at 7 and 18 weeks old, respectively. After an overnight fast, ob/ob and DIO mice were injected with vehicle (20 mM Na acetate/140 mM NaCl) or EDN3 97-140 (0.1, 1 or 10 mg/kg i.p.) followed by a […] (i.p.) or 2 g/kg (i.p.) D-glucose challenge in ob/ob and DIO mice respectively. Plasma glucose levels were determined from mouse tail vein bleeds at 0, 15, 30, 60, and 120 minutes after compound injection and measured using an automatic glucometer (Alpha-Trak). To determine the acute insulin release, plasma insulin levels were measured by using an ELISA kit with mouse insulin as a standard (Meso Scale Discovery). Results were expressed as percentages of vehicle concentrations and statistical significance determined by 2-way ANOVA repeated measures.

Another assay deals with rat perfused colon. The experiment in a line: GLP-1 secretion from rat perfused colon ex vivo. As for the experimental part: Ex vivo rat colon vascular perfusion experiments were performed as previously described (Plaisancié, 1995). Male Sprague-Dawley rats (300 g) were purchased from Charles River and fed ad libitum with Purina Lab Chow #5001 (WF Fisher and Son Inc Sommerville, N.J.). Rats were decapitated and the abdomen was opened with a midline incision. […] The arterial vascular perfusion started immediately with an oxygenated Krebs-Henseleit buffer containing-solution at a rate of 2 mL/minute [solution: Krebs-Henseleit buffer (25.0 mM NaHCO3; 118 mM NaCl; 4.7 mM KCl; 1.2 mM MgSO4; 1.2 mM KH2PO4; 2.5 mM CaCl2) with 3% BSA, 5 mM glucose, MEM essential and nonessential amino acids (pH 7.4)]. The colonal lumen was perfused at the rate of 0.5 mL/minute. The remaining colon and small intestine were removed after the ligation of their respective supplying vessels. After the colon preparation was transferred to a 37° C. tissue bath, the portal effluent was collected as 5 minute fractions. The fraction aliquots were frozen at −20° C. for subsequent determinations of GLP-1. EDN3 97-140 was dissolved at 200 nM in vascular perfusion solution and perfused into the artery after a 30 minute baseline collection. […] The GLP-1 detection assay was carried out by using a commercial kit for active GLP-1 (7-36) amide according to the manufacturer's instructions (Millipore). GLP-1 release data was normalized to % baseline using the average of fractions collected prior to treatment as the baseline value and the peak data following each treatment. The average data across 3 independent experiments was reported comparing EDN3 97-140 versus control (baseline) and forskolin versus control (baseline). Statistical analysis was performed by one sided Satterwaite's test due to unequal variance and the Holm test was applied to account for multiple comparisons.

Another assay relates to 3T3L1 adipocyte. The experiment in a line: 3T3L1 adipocyte basal glucose uptake. The settings on record: 10 μM (data not shown). It is filed as cell-based.

“Also recorded” adds a separate entry of the source. Bridges are numbered along the chain shown (N, C = ends). Where no end group is shown, it is not given here.

For the substance “CTCFTYKDKECVYYCHLDIIWINTPEQTVPYGLSNYRESLRGKR-NH2 (disulfide 1-15, 3-11) [EDN3 97-140]”, the locomotor activity entry with C57BL6J male mice is given as “transient spike of increased locomotor activity; also recorded: transient increase in locomotor activity”. In addition, the “decrease of glucose excursion” value in the assay with DIO mice (DIO mice, 0.1 mg/kg i.p.) turned out to be 19±7.2%; in the assay with DIO mice (DIO mice, 1 mg/kg i.p.), 20.7±8.7%. The “insulin during IPGTT” value with DIO mice (DIO mice, i.p. (p>0.05)) is on record as “no statistically significant effect on insulin”. In addition, the “glucose excursion curve in response to an IPGTT” value with DIO mice (diet induced obese mice, acute peripheral administration 0.1, 1 or 10 mg/kg i.p.) is “decreased”. In addition, the “increase in GLP secretion from the rat perfused colon” value in the assay with rat perfused colon (200 nM perfused via the superior mesenteric artery, vs baseline, p=0.0438) is listed as 56±18%. Moreover, the “increase in GLP-1 release” value with rat perfused colon (200 nM, rat perfused colon) is reported as ~10 pM. Moreover, the “effect on 3T3L1 adipocyte basal glucose uptake” value with 3T3L1 adipocyte is “no effect”.
